Measured values from paper PMC7500466, “Inhibition of JNK-Mediated Autophagy Promotes Proscillaridin A- Induced Apoptosis via ROS Generation, Intracellular Ca^+2 Oscillation and Inhibiting STAT3 Signaling in Breast Cancer Cells” (Frontiers in Pharmacology, 2020).

Biological target: T1, STAT3 (signal transducer and activator of transcription 3) (Homo sapiens, UniProt P40763)
T1 construct: Recombinant human STAT3 protein
Assay: SPR, STAT3 immobilized on C5 sensor chip, PSD-A […]
Format: binding

T1 sequence (P40763 2-770): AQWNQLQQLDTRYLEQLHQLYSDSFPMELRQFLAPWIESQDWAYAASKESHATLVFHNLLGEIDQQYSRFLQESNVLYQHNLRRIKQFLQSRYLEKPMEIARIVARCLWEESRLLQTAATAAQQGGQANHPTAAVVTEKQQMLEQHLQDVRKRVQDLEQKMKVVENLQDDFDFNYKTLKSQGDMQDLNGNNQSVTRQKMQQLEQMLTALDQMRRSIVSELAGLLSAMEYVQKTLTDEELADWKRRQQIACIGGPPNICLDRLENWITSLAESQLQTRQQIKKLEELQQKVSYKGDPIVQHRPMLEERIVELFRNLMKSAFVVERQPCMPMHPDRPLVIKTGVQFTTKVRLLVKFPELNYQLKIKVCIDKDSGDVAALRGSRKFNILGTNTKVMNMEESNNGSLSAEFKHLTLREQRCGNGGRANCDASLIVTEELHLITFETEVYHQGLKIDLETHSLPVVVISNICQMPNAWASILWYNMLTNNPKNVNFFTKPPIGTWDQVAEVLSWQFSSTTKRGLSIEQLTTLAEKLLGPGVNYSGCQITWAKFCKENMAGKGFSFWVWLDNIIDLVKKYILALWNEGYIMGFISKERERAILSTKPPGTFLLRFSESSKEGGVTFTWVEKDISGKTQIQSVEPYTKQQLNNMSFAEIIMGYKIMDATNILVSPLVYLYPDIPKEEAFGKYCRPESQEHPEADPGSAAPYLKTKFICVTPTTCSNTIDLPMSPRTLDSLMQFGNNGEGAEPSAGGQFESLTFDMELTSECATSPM

Compound: C[C@@H]1O[C@@H](O[C@@H]2C=C3CC[C@@H]4[C@H](CC[C@]5(C)[C@@H](c6ccc(=O)oc6)CC[C@]45O)[C@@]3(C)CC2)[C@H](O)[C@H](O)[C@H]1O [PSD-A, Proscillaridin A]
- Kd: ~160 nM
